Test results reported in patent US20100268187A1, “PACKAGING FOR SIROLIMUS AND COMPOSITION THEREOF” (Ranbaxy Laboratories Limited, priority 2009, published 2010).

Experiment: Stability studies of sirolimus particles packed in vacuum sealed impermeable container at 25° C. and 60% RH, impurities by gradient HPLC
Type: physicochemical
Settings: three months
Excerpt: Sirolimus particles (d90-4.1 micron) were packed in a bag made up of laminate having a polyester and a polyethylene layer wherein the layers have a thickness of 12 micron and 75 micron, respectively. The bag was sealed under vacuum. The vacuum sealed bag was put into second bag made up of laminate having polyester, aluminium foil, polyester and polyethylene layer wherein the layers have a thickness of 12 micron, 12 micron, 12 micron and 75 microns, respectively. The second bag was sealed under vacuum and was subjected to stability studies at 25° C. and 60% RH for three months.
Quantitative determination was carried out using Gradient High Performance Liquid Chromatography with a mixture of ammonium phosphate buffer and an organic phase (acetonitrile and tetrahydrofuran) as the mobile phase, ACE C18, HL, 5 μm column as a stationary phase and a UV detector.

- Stability on storage: stable
Structure (SMILES): CO[C@H]1C[C@@H]2CC[C@@H](C)[C@@](O)(O2)C(=O)C(=O)N2CCCC[C@H]2C(=O)O[C@H]([C@H](C)C[C@@H]2CC[C@@H](O)[C@H](OC)C2)CC(=O)[C@H](C)/C=C(\C)[C@@H](O)[C@@H](OC)C(=O)[C@H](C)C[C@H](C)/C=C/C=C/C=C/1C [sirolimus particles, Sirolimus]
